Assay results: ChEMBL document CHEMBL4004803, “Syntheses and antibacterial activity of soluble 9-bromo substituted indolizinoquinoline-5,12-dione derivatives” (Eur J Med Chem, 2017)
Values after ≈ are worked out from the molar mass of the structure shown.

Columns and labels:
Staphylococcus aureus [1] = assay: Antibacterial activity against methicillin-resistant Staphylococcus aureus 1029025 clinical isolate after 20 to 24 hrs by two-fold microdilution method; format: functional
Staphylococcus aureus [2] = assay: Antibacterial activity against methicillin-resistant Staphylococcus aureus clinical isolate after 20 to 24 hrs by two-fold microdilution method; format: functional
Staphylococcus aureus [3] = assay: Antibacterial activity against methicillin-resistant Staphylococcus aureus 1024010 clinical isolate after 20 to 24 hrs by two-fold microdilution method; format: functional
Staphylococcus aureus [4] = assay: Antibacterial activity against methicillin-resistant Staphylococcus aureus 10844 clinical isolate after 20 to 24 hrs by two-fold microdilution method; format: functional
Staphylococcus aureus [5] = assay: Antibacterial activity against methicillin-resistant Staphylococcus aureus 111423 clinical isolate after 20 to 24 hrs by two-fold microdilution method; format: functional
Staphylococcus aureus [6] = assay: Antibacterial activity against methicillin-resistant Staphylococcus aureus 625032 clinical isolate after 20 to 24 hrs by two-fold microdilution method; format: functional
Staphylococcus aureus [7] = assay: Antibacterial activity against methicillin-resistant Staphylococcus aureus 814039 clinical isolate after 20 to 24 hrs by two-fold microdilution method; format: functional
Staphylococcus aureus [8] = assay: Antibacterial activity against methicillin-resistant Staphylococcus aureus 103054 clinical isolate after 20 to 24 hrs by two-fold microdilution method; format: functional
Staphylococcus aureus [9] = assay: Antibacterial activity against methicillin-resistant Staphylococcus aureus 102849 clinical isolate after 20 to 24 hrs by two-fold microdilution method; format: functional
Staphylococcus aureus [10] = assay: Antibacterial activity against methicillin-resistant Staphylococcus aureus 912014 clinical isolate after 20 to 24 hrs by two-fold microdilution method; format: functional
Staphylococcus aureus [11] = assay: Antibacterial activity against methicillin-resistant Staphylococcus aureus 20339 clinical isolate after 20 to 24 hrs by two-fold microdilution method; format: functional
Staphylococcus aureus [12] = assay: Antibacterial activity against methicillin-resistant Staphylococcus aureus 519028 clinical isolate after 20 to 24 hrs by two-fold microdilution method; format: functional
Staphylococcus aureus [13] = assay: Antibacterial activity against methicillin-resistant Staphylococcus aureus 110328-1 clinical isolate after 20 to 24 hrs by two-fold microdilution method; format: functional
Staphylococcus aureus [14] = assay: Antibacterial activity against methicillin-resistant Staphylococcus aureus 110834 clinical isolate after 20 to 24 hrs by two-fold microdilution method; format: functional
Staphylococcus aureus [15] = assay: Antibacterial activity against methicillin-resistant Staphylococcus aureus 305026 clinical isolate after 20 to 24 hrs by two-fold microdilution method; format: functional
Staphylococcus aureus [16] = assay: Antibacterial activity against methicillin-resistant Staphylococcus aureus 202045 clinical isolate after 20 to 24 hrs by two-fold microdilution method; format: functional
Staphylococcus aureus [17] = assay: Antibacterial activity against methicillin-resistant Staphylococcus aureus 121969 clinical isolate after 20 to 24 hrs by two-fold microdilution method; format: functional
Staphylococcus aureus [18] = assay: Antibacterial activity against methicillin-resistant Staphylococcus aureus 110432 clinical isolate after 20 to 24 hrs by two-fold microdilution method; format: functional
Staphylococcus aureus [19] = assay: Antibacterial activity against methicillin-resistant Staphylococcus aureus 1216052 clinical isolate after 20 to 24 hrs by two-fold microdilution method; format: functional
Staphylococcus aureus [20] = assay: Antibacterial activity against methicillin-resistant Staphylococcus aureus 1212221 clinical isolate after 20 to 24 hrs by two-fold microdilution method; format: functional
Staphylococcus aureus [21] = assay: Antibacterial activity against methicillin-resistant Staphylococcus aureus 1214023 clinical isolate after 20 to 24 hrs by two-fold microdilution method; format: functional
Staphylococcus aureus [22] = assay: Antibacterial activity against methicillin-resistant Staphylococcus aureus 316038 clinical isolate after 20 to 24 hrs by two-fold microdilution method; format: functional
Staphylococcus aureus [23] = assay: Antibacterial activity against methicillin-resistant Staphylococcus aureus 214026 clinical isolate after 20 to 24 hrs by two-fold microdilution method; format: functional
Staphylococcus aureus [24] = assay: Antibacterial activity against methicillin-resistant Staphylococcus aureus 20534 clinical isolate after 20 to 24 hrs by two-fold microdilution method; format: functional
Staphylococcus aureus [25] = assay: Antibacterial activity against methicillin-resistant Staphylococcus aureus 1025022 clinical isolate after 20 to 24 hrs by two-fold microdilution method; format: functional
Staphylococcus aureus [26] = assay: Antibacterial activity against methicillin-resistant Staphylococcus aureus 502025 clinical isolate after 20 to 24 hrs by two-fold microdilution method; format: functional
Staphylococcus aureus [27] = assay: Antibacterial activity against methicillin-resistant Staphylococcus aureus 11703 clinical isolate after 20 to 24 hrs by two-fold microdilution method; format: functional
Staphylococcus aureus [28] = assay: Antibacterial activity against methicillin-resistant Staphylococcus aureus 109016 clinical isolate after 20 to 24 hrs by two-fold microdilution method; format: functional
Staphylococcus aureus [29] = assay: Antibacterial activity against methicillin-resistant Staphylococcus aureus 224001 clinical isolate after 20 to 24 hrs by two-fold microdilution method; format: functional
Staphylococcus aureus [30] = assay: Antibacterial activity against methicillin-resistant Staphylococcus aureus 110325 clinical isolate after 20 to 24 hrs by two-fold microdilution method; format: functional
Staphylococcus aureus [31] = assay: Antibacterial activity against methicillin-resistant Staphylococcus aureus 123152 clinical isolate after 20 to 24 hrs by two-fold microdilution method; format: functional
Staphylococcus aureus [32] = assay: Antibacterial activity against methicillin-resistant Staphylococcus aureus GLH15 clinical isolate after 20 to 24 hrs by two-fold microdilution method; format: functional
Staphylococcus aureus [33] = assay: Antibacterial activity against methicillin-resistant Staphylococcus aureus 1212057-1 clinical isolate after 20 to 24 hrs by two-fold microdilution method; format: functional
Staphylococcus aureus [34] = assay: Antibacterial activity against methicillin-resistant Staphylococcus aureus 503025 clinical isolate after 20 to 24 hrs by two-fold microdilution method; format: functional
Streptococcus pyogenes = assay: Antibacterial activity against Streptococcus pyogenes ATCC 19615 after 20 to 24 hrs by two-fold microdilution method; format: functional
[35] = Solubility of the compound in water at 25 degC measured after shaking for 4 hrs by UV method; format: physicochemical; conditions: buffer, 4 h
Staphylococcus aureus [36] = assay: Antibacterial activity against methicillin-resistant Staphylococcus aureus 518036 clinical isolate after 20 to 24 hrs by two-fold microdilution method; format: functional
Staphylococcus aureus [37] = assay: Antibacterial activity against methicillin-resistant Staphylococcus aureus 19950 clinical isolate after 20 to 24 hrs by two-fold microdilution method; format: functional
Staphylococcus aureus [38] = assay: Antibacterial activity against methicillin-resistant Staphylococcus aureus 1207026 clinical isolate after 20 to 24 hrs by two-fold microdilution method; format: functional
Staphylococcus aureus [39] = assay: Antibacterial activity against methicillin-resistant Staphylococcus aureus 1024004-2 clinical isolate after 20 to 24 hrs by two-fold microdilution method; format: functional
Staphylococcus aureus [40] = assay: Antibacterial activity against methicillin-resistant Staphylococcus aureus 111625 clinical isolate after 20 to 24 hrs by two-fold microdilution method; format: functional
Staphylococcus aureus [41] = assay: Antibacterial activity against methicillin-resistant Staphylococcus aureus 1111047-1 clinical isolate after 20 to 24 hrs by two-fold microdilution method; format: functional
Staphylococcus aureus [42] = assay: Antibacterial activity against methicillin-resistant Staphylococcus aureus 504008 clinical isolate after 20 to 24 hrs by two-fold microdilution method; format: functional
Staphylococcus aureus [43] = assay: Antibacterial activity against methicillin-resistant Staphylococcus aureus 530231 clinical isolate after 20 to 24 hrs by two-fold microdilution method; format: functional
Staphylococcus aureus [44] = assay: Antibacterial activity against methicillin-resistant Staphylococcus aureus 131215 clinical isolate after 20 to 24 hrs by two-fold microdilution method; format: functional
Staphylococcus aureus [45] = assay: Antibacterial activity against […] Staphylococcus aureus ATCC 25923 after 20 to 24 hrs by two-fold microdilution method; format: functional
Staphylococcus aureus [46] = assay: Antibacterial activity against methicillin-resistant Staphylococcus aureus 1026211 clinical isolate after 20 to 24 hrs by two-fold microdilution method; format: functional

## O=C1c2cccnc2C(=O)c2c1c(C(=O)OCCCCCCN1CCOCC1)c1ccc(Br)cn21
Staphylococcus aureus [1]
  MIC: ≤ 7.8 ng/mL
Staphylococcus aureus [2]
  MIC50: ≤ 7.8 ng/mL
  MIC90: ≤ 7.8 ng/mL
Staphylococcus aureus [3]
  MIC: ≤ 7.8 ng/mL
Staphylococcus aureus [4]
  MIC: ≤ 7.8 ng/mL
Staphylococcus aureus [5]
  MIC: 16000 ng/mL (≈ 29.6 µM)
Staphylococcus aureus [6]
  MIC: ≤ 7.8 ng/mL
Staphylococcus aureus [7]
  MIC: ≤ 7.8 ng/mL
Staphylococcus aureus [8]
  MIC: ≤ 7.8 ng/mL
Staphylococcus aureus [9]
  MIC: ≤ 7.8 ng/mL
Staphylococcus aureus [10]
  MIC: ≤ 7.8 ng/mL
Staphylococcus aureus [11]
  MIC: ≤ 7.8 ng/mL
Staphylococcus aureus [12]
  MIC: ≤ 7.8 ng/mL
Staphylococcus aureus [13]
  MIC: ≤ 7.8 ng/mL
Staphylococcus aureus [14]
  MIC: ≤ 7.8 ng/mL
Staphylococcus aureus [15]
  MIC: ≤ 7.8 ng/mL
Staphylococcus aureus [16]
  MIC: ≤ 7.8 ng/mL
Staphylococcus aureus [17]
  MIC: ≤ 7.8 ng/mL
Staphylococcus aureus [18]
  MIC: ≤ 7.8 ng/mL
Staphylococcus aureus [19]
  MIC: 16000 ng/mL (≈ 29.6 µM)
Staphylococcus aureus [20]
  MIC: ≤ 7.8 ng/mL
Staphylococcus aureus [21]
  MIC: ≤ 7.8 ng/mL
Staphylococcus aureus [22]
  MIC: ≤ 7.8 ng/mL
Staphylococcus aureus [23]
  MIC: ≤ 7.8 ng/mL
Staphylococcus aureus [24]
  MIC: ≤ 7.8 ng/mL
Staphylococcus aureus [25]
  MIC: ≤ 7.8 ng/mL
Staphylococcus aureus [26]
  MIC: ≤ 7.8 ng/mL
Staphylococcus aureus [27]
  MIC: ≤ 7.8 ng/mL
Staphylococcus aureus [28]
  MIC: ≤ 7.8 ng/mL
Staphylococcus aureus [29]
  MIC: ≤ 7.8 ng/mL
Staphylococcus aureus [30]
  MIC: ≤ 7.8 ng/mL
Staphylococcus aureus [31]
  MIC: ≤ 7.8 ng/mL
Staphylococcus aureus [32]
  MIC: ≤ 7.8 ng/mL
Staphylococcus aureus [33]
  MIC: ≤ 7.8 ng/mL
Staphylococcus aureus [34]
  MIC: ≤ 7.8 ng/mL
Streptococcus pyogenes
  MIC: 2000 ng/mL (≈ 3.7 µM)
[35]
  solubility: Insoluble
Staphylococcus aureus [36]
  MIC: ≤ 7.8 ng/mL
Staphylococcus aureus [37]
  MIC: ≤ 7.8 ng/mL
Staphylococcus aureus [38]
  MIC: ≤ 7.8 ng/mL
Staphylococcus aureus [39]
  MIC: ≤ 7.8 ng/mL
Staphylococcus aureus [40]
  MIC: ≤ 7.8 ng/mL
Staphylococcus aureus [41]
  MIC: ≤ 7.8 ng/mL
Staphylococcus aureus [42]
  MIC: ≤ 7.8 ng/mL
Staphylococcus aureus [43]
  MIC: ≤ 7.8 ng/mL
Staphylococcus aureus [44]
  MIC: 7.8 ng/mL (≈ 0.0144 µM)
Staphylococcus aureus [45]
  MIC: ≤ 7.8 ng/mL
Staphylococcus aureus [46]
  MIC: ≤ 7.8 ng/mL
